Data published in patent US20080119515A1, “Heterocyclic Kinase Inhibitors: Methods of Use and Synthesis” (priority 2003, published 2008).
pIC50: −log10 of the molar value.

biological target: T1, ZAP-70 (Homo sapiens, UniProt P43403); test: DELFIA assay (ZAP-70 kinase, phosphorylation of biotinylated poly(glu,tyr)); format: biochemical; conditions: ZAP-70 DELFIA, class symbols; read-out: Activity (IC50 in vitro)
T1 sequence (P43403 1-619): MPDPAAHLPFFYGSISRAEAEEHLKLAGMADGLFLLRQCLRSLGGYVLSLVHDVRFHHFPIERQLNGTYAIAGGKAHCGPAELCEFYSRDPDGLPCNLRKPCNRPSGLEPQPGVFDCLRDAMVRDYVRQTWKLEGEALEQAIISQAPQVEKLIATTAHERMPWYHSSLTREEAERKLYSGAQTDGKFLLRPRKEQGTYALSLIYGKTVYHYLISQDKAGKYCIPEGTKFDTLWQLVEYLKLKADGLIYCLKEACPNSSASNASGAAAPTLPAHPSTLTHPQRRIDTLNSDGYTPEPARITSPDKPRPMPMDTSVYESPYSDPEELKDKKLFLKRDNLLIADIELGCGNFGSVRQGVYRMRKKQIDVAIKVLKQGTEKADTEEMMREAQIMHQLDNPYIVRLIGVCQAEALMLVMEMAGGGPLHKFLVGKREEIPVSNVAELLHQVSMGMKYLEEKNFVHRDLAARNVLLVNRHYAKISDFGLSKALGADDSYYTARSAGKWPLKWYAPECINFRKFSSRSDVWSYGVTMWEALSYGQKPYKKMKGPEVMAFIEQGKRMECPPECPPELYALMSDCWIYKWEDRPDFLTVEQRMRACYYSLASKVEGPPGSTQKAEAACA
Protocol: Before initiation of kinase reactions, compounds were pre-incubated with ZAP-70. Pre-incubation reactions contained 62.5 mM Mops pH 7.0, 12.5 mM MgCl2, 12.5% glycerol, 3.1 nM ZAP-70, 62.5 nM biotinylated poly(glu,Tyr), 0.1 mg/ml BSA, 6.25% DMSO and […] compound in a total volume of […]. After a 10 minute room temperature incubation, 10 ml of 5 mM ATP was added to start the reaction. Reactions were incubated at room temperature for 30 minutes then terminated by addition of 5 ml 500 mM EDTA. The amount of phosphate transferred to biotinylated poly(glu,tyr) was measured using the Dissociation Enhanced Lanthanide Fluorescence Immuno-assay (DELFIA) from Perkin Elmer according to manufacturers protocol. Briefly, biotinylated […] was captured on streptavidin coated plates, washed twice, then incubated with Europium labeled-anti-phosphotyrosine antibody. Free antibody was removed with six washes, Europium was dissociated from the antibody, and Europium fluorescence was measured at using an excitation wavelength of 340 nm and an emission wavelength of 615 nm.

| SMILES | pIC50 |
| --- | --- |
| O=C(c1cc(NCc2ccccn2)nc2ccc(-c3ccc4c(c3)OCO4)cc12)N1CCC[C@H]1CN1CCCC1 [Compound 33] | 5.00 to 6.00 |
| N#Cc1ccc(-c2ccc3nc(NCc4cc(Cl)cc(Cl)c4)cc(C(=O)N4CCC[C@H]4CN4CCCC4)c3c2)cc1 [Compound 189] | < 5.00 |
| O=C(c1cc(-c2ccc(F)c(Cl)c2)nc2ccc(-c3ccc(F)c(Cl)c3)cc12)N1CCC[C@H]1CN1CCCC1 [Compound 95] | 5.00 to 6.00 |
| CC(=O)Nc1cccc(-c2ccc3nc(NCc4ccc(C(F)(F)F)cc4)cc(C(=O)N4CCC[C@H]4CN4CCCC4)c3c2)c1 [Compound 297] | < 5.00 |
| O=C(c1cc(NCc2ccc(C(F)(F)F)cc2)nc2ccc(-c3ccc4c(c3)OCO4)cc12)N1CC[C@H]1CN1CCCC1 [Compound 149] | 5.00 to 6.00 |
| N#Cc1ccc(-c2ccc3nc(N4CCCC(c5ccccc5F)C4)cc(C(=O)N4CCC[C@H]4CN4CCCC4)c3c2)cc1 (stereo partly drawn) [Compound 267] | < 5.00 |
| Nc1ccc(CCc2cc(C(=O)N3CCC[C@H]3CN3CCCC3)c3cc(-c4ccc5c(c4)OCO5)ccc3n2)cc1 [Compound 394] | < 5.00 |
| Cc1ccc(CNc2cc(C(=O)N3CCC[C@H]3CN3CCCC3)c3cc(-c4ccc(C#N)cc4)ccc3n2)cc1 [Compound 178] | < 5.00 |
| N#Cc1ccc(-c2ccc3nc(NCCc4ccc(Cl)c(Cl)c4)cc(C(=O)N4CCC[C@H]4CN4CCCC4)c3c2)cc1 [Compound 220] | < 5.00 |
| C[C@@H](Nc1cc(C(=O)N2CCC[C@H]2CN2CCCC2)c2cc(-c3ccc(C#N)cc3)ccc2n1)c1ccccc1 [Compound 201] | < 5.00 |
| CN(CCc1ccccc1)c1cc(C(=O)N2CCC[C@H]2CN2CCCC2)cc(N(C)Cc2ccccc2)n1 [Compound 364] | 5.00 to 6.00 |
| Cc1cc(CNc2cc(C(=O)N3CCC[C@H]3CN3CCCC3)c3cc(-c4ccc(C#N)cc4)ccc3n2)ccc1F [Compound 225] | < 5.00 |
| N#Cc1ccc(-c2ccc3nc(N4CCCC4c4ccccc4)cc(C(=O)N4CCC[C@H]4CN4CCCC4)c3c2)cc1 (stereo partly drawn) [Compound 257] | < 5.00 |
| N#Cc1ccc(-c2ccc3nc(NCC4(c5cccs5)CC4)cc(C(=O)N4CCC[C@H]4CN4CCCC4)c3c2)cc1 [Compound 272] | < 5.00 |
| O=C(c1cc(N2CCC(O)CC2)nc2ccc(-c3ccc4c(c3)OCO4)cc12)N1CCC[C@H]1CN1CCCC1 [Compound 90] | 5.00 to 6.00 |
| O=C(c1cc(NCc2ccc(C(F)(F)F)cc2)nc2ccc(-c3cccc(Cl)c3Cl)cc12)N1CCC[C@H]1CN1CCCC1 [Compound 346] | < 5.00 |
| O=C(c1cc(NCc2cccnc2)nc2ccc(-c3ccc4c(c3)OCO4)cc12)N1CCC[C@H]1CN1CCCC1 [Compound 34] | 5.00 to 6.00 |

| SMILES | pIC50 |
| --- | --- |
| O=C(c1cc(NCc2ccc(C(F)(F)F)cc2)nc2ccc(-c3ccc4c(c3)OCO4)cc12)N1CCCC[C@H]1CN1CCCC1 [Compound 375] | 5.00 to 6.00 |
| O=C(c1cc(NCc2ccc(C(F)(F)F)cc2)nc2ccc(-c3ccc(C(F)(F)F)cc3)cc12)N1CCC[C@H]1CN1CCCC1 [Compound 345] | < 5.00 |
| CN(C)c1cc(C(=O)N2CCC[C@H]2CN2CCCC2)c2cc(-c3ccc4c(c3)OCO4)ccc2n1 [Compound 59] | 5.00 to 6.00 |
| C[C@H](CNc1cc(C(=O)N2CCC[C@H]2CN2CCCC2)c2cc(-c3ccc(C#N)cc3)ccc2n1)c1ccccc1 [Compound 187] | < 5.00 |
| Cn1cncc1-c1ccc2nc(NCc3ccc(C(F)(F)F)cc3)cc(C(=O)N3CCC[C@H]3CN3CCCC3)c2c1 [Compound 342] | < 5.00 |
| N#Cc1ccc(-c2ccc3nc(NCc4cccc(-c5ccccc5)c4)cc(C(=O)N4CCC[C@H]4CN4CCCC4)c3c2)cc1 [Compound 217] | < 5.00 |
| N#Cc1ccc(-c2ccc3nc(N4CCC(c5cccc(F)c5)C4)cc(C(=O)N4CCC[C@H]4CN4CCCC4)c3c2)cc1 (stereo partly drawn) [Compound 263] | < 5.00 |
| O=C(c1cc(NCc2ccc(Cl)cc2)nc2ccc(-c3ccc4c(c3)OCO4)cc12)N1CCCC[C@H]1CN1CCCC1 [Compound 376] | 5.00 to 6.00 |
| N#Cc1ccc(-c2ccc3nc(NCc4cc(F)ccc4C(F)(F)F)cc(C(=O)N4CCC[C@H]4CN4CCCC4)c3c2)cc1 [Compound 241] | < 5.00 |
| CC(=O)N1CCN(c2cc(C(=O)N3CCC[C@H]3CN3CCCC3)c3cc(-c4ccc5c(c4)OCO5)ccc3n2)CC1 [Compound 58] | 5.00 to 6.00 |
| O=C(c1cc(NCc2ccc(C(F)(F)F)cc2)nc2ccc(-c3ccc4c(c3)OCO4)cc12)N1CCC(CN2CCCC2)C1 (stereo not drawn) [Compound 110] | < 5.00 |
| CN(C)[C@@H]1CCN(c2cc(C(=O)N3CCC[C@H]3CN3CCCC3)c3cc(-c4ccc5c(c4)OCO5)ccc3n2)C1 [Compound 75] | 5.00 to 6.00 |
| N#Cc1ccc(-c2ccc3nc(NCc4cccc5ccccc45)cc(C(=O)N4CCC[C@H]4CN4CCCC4)c3c2)cc1 [Compound 216] | < 5.00 |
| O=C(c1cc(Sc2ccc(C(F)(F)F)cc2)nc2ccc(-c3ccc4c(c3)OCO4)cc12)N1CCC[C@H]1CN1CCCC1 [Compound 323] | < 5.00 |
| Cc1ccsc1-c1ccc2nc(NCc3ccc(C(F)(F)F)cc3)cc(C(=O)N3CCC[C@H]3CN3CCCC3)c2c1 [Compound 337] | < 5.00 |
| O=C(c1cc(NC2CCC2)nc2ccc(-c3ccc4c(c3)OCO4)cc12)N1CCC[C@H]1CN1CCCC1 [Compound 39] | 5.00 to 6.00 |
| CN(Cc1ccccc1)c1cc(C(=O)N2CCC[C@H]2CN2CCCC2)cc(/C=C/c2ccccc2)n1 [Compound 279] | < 5.00 |

Now from value to compound:

| pIC50 | SMILES |
| --- | --- |
| > 6.00 | O=C(c1cc(NCc2ccc(C(F)(F)F)cc2)nc2ccc(-c3cccc(Cl)c3)cc12)N1CCC[C@H]1CN1CCCC1 [Compound 306] |
| > 6.00 | O=C(c1cc(NCc2ccc(C(F)(F)F)cc2)nc2ccc(-c3ccc4c(c3)OCO4)cc12)N1CCC[C@H]1CNC1CCC1 [Compound 359] |
| > 6.00 | c1cc(N2CCNCC2)ccc1Nc1cc(Nc2ccc(N3CCNCC3)cc2)c2cc(-c3ccc4c(c3)OCO4)ccc2n1 [Compound 449] |
| > 6.00 | O=C(c1cc(NCc2ccc(C(F)(F)F)cc2)nc2ccc(-c3ccc4ncsc4c3)cc12)N1CCC[C@H]1CN1CCCC1 [Compound 352] |
| > 6.00 | O=C(c1cc(NCc2ccc(C(F)(F)F)cc2)nc2ccc(-c3cc(Cl)cc(Cl)c3)cc12)N1CCC[C@H]1CN1CCCC1 [Compound 292] |
| > 6.00 | O=C(c1cc(Cc2ccc(N3CCN(CCc4ccncc4)CC3)cc2)nc2ccc(-c3ccc4c(c3)OCO4)cc12)N1CCCC1CN1CCCC1 (stereo not drawn) [Compound 444] |
| > 6.00 | O=C(c1cc(Nc2ccc3ncsc3c2)nc2ccc(-c3ccc4c(c3)OCO4)cc12)N1CCC[C@H]1CN1CCCC1 [Compound 56] |
| > 6.00 | O=C(c1cc(CCc2cccc(F)c2)nc2ccc(-c3ccc4c(c3)OCO4)cc12)N1CCC[C@H]1CN1CCCC1 [Compound 396] |
| > 6.00 | N#Cc1cccc(-c2ccc3nc(NCc4ccc(C(F)(F)F)cc4)cc(C(=O)N4CCC[C@H]4CN4CCCC4)c3c2)c1 [Compound 106] |
| > 6.00 | N#Cc1ccc(-c2ccc3nc(NCc4cccc(OC(F)F)c4)cc(C(=O)N4CCC[C@H]4CN4CCCC4)c3c2)cc1 [Compound 319] |
| > 6.00 | CCN(Cc1ccccc1)c1cc(C(=O)N2CCC[C@H]2CN2CCCC2)c2cc(-c3ccc4c(c3)OCO4)ccc2n1 [Compound 68] |
| > 6.00 | O=C(c1cc(Oc2ccccc2)nc2ccc(-c3ccc4c(c3)OCO4)cc12)N1CCC[C@H]1CN1CCCC1 [Compound 22] |
| > 6.00 | O=C(NCc1ccc(Cl)cc1)c1cc(C(=O)N2CCC[C@H]2CN2CCCC2)c2cc(-c3ccc4c(c3)OCO4)ccc2n1 [Compound 140] |
| > 6.00 | O=C(c1cc(NCc2ccccc2Cl)nc2ccc(-c3ccc4c(c3)OCO4)cc12)N1CCC[C@H]1CN1CCCC1 [Compound 36] |
| > 6.00 | O=C(c1cc(NCc2ccc(C(F)(F)F)cc2)nc2ccc(-c3ccsc3)cc12)N1CCC[C@H]1CN1CCCC1 [Compound 294] |
| > 6.00 | O=C(c1cc(NCc2ccc(C(F)(F)F)cc2)nc2ccc(-c3ccc(F)c(F)c3)cc12)N1CCC[C@H]1CN1CCCC1 [Compound 344] |
| > 6.00 | O=C(c1cc(N2CCC[C@@H]2CO)nc2ccc(-c3ccc4c(c3)OCO4)cc12)N1CCC[C@H]1CN1CCCC1 [Compound 91] |
| > 6.00 | O=C(c1cc(OCc2ccc(C(F)(F)F)cc2)nc2ccc(-c3ccc4c(c3)OCO4)cc12)N1CCC[C@H]1CN1CCCC1 [Compound 98] |
| > 6.00 | O=C(c1cc(N2CCCc3ccccc32)nc2ccc(-c3ccc4c(c3)OCO4)cc12)N1CCC[C@H]1CN1CCCC1 [Compound 92] |
| > 6.00 | O=C(c1cc(NCc2ccc(C(F)(F)F)cc2)nc2ccc(-c3ccc(F)c(Cl)c3)cc12)N1CCC[C@H]1CN1CCCC1 [Compound 303] |
